Experimental data published in patent US20130035232A1, “INDUCTION AND STABILIZATION OF ENZYMATIC ACTIVITY IN MICROORGANISMS” (GEORGIA STATE UNIVERSITY RESEARCH FOUNDATION, INC., priority 2010, published 2013).
Blank lines part the entries; values can stand above or below the molecule they belong to.

What was measured:
nitrile hydratase [1] = test: Nitrile hydratase induction by inducers (Example 1); assay type: cell-based, Rhodococcus sp., strain DAP 96253; details: inducer 1000 ppm; for Nitrile Hydratase Activity: Rhodococcus sp. DAP 96253, YEMEA, 10 ppm cobalt, 7.5 g/L urea
Protocol: (§1) The induction of nitrile hydratase activity and amidase activity in Rhodococcus sp., strain DAP 96253, was evaluated using multiple types of inducers (1000 ppm). Three different samples were cultured in YEMEA medium containing 10 ppm cobalt and 7.5 g/L urea and supplemented with acrylonitrile, asparagine, or glutamine. The specific nitrile hydratase activity and the specific amidase activity in each sample was evaluated, and the results are provided below in Table 3, with activities provided in units/mg cdw (cell dry weight). One unit of nitrile hydratase activity relates to the ability to convert 1 μmol of acrylonitrile to its corresponding amide per minute, per milligram of cells (dry weight) at a pH of 7.0 and a temperature of 30° C. One unit of amidase activity relates to the ability to convert 1 μmol of acrylamide to its corresponding acid per minute, per milligram of cells (dry weight) pH of 7.0 and a temperature of 30° C.

amidase [2] = test: Amidase induction by inducers (Example 1); assay type: cell-based, Rhodococcus sp., strain DAP 96253; details: for Amidase Activity: Rhodococcus sp. DAP 96253, YEMEA, 10 ppm cobalt, 7.5 g/L urea, inducer 1000 ppm
Protocol: as §1

[3] = system: Brevibacterium ketoglutaricum ATCC 21533; test: Growth on supplemented YEMEA (visual grade); assay type: cell-based; design: key: (−) meaning no detectable growth; (+/−) meaning scant growth; (+) meaning little growth; (++) meaning good growth; (+++) meaning very good growth; (++++) meaning excellent growth; details: 30 °C, 7.5 g/L urea, 10 ppm cobalt, supplement 3.8 mM
Protocol: (§2) The relative growth of various nitrile hydratase producing microorganisms was evaluated. All strains were grown on YEMEA medium containing 7.5 g/L of urea and 10 ppm cobalt (provided as cobalt chloride) supplemented with asparagine (ASN), glutamine (GLN), or both asparagine and glutamine. The asparagine and glutamine were added at a concentration of 3.8 mM. Growth temperature was in the range of 26° C. to 30° C. Growth was evaluated by visual inspection and graded on the following scale: (−) meaning no detectable growth; (+/−) meaning scant growth; (+) meaning little growth; (++) meaning good growth; (+++) meaning very good growth; and (++++) meaning excellent growth.

[4] = system: Pseudomonas chloroaphis ATCC 13985; test: Growth on supplemented YEMEA (visual grade); assay type: cell-based; design: key: (−) meaning no detectable growth; (+/−) meaning scant growth; (+) meaning little growth; (++) meaning good growth; (+++) meaning very good growth; (++++) meaning excellent growth; details: 26 °C, 7.5 g/L urea, 10 ppm cobalt, supplement 3.8 mM
Protocol: as §2

[5] = system: Pseudomonas chloroaphis ATCC 43051; test: Growth on supplemented YEMEA (visual grade); assay type: cell-based; design: key: (−) meaning no detectable growth; (+/−) meaning scant growth; (+) meaning little growth; (++) meaning good growth; (+++) meaning very good growth; (++++) meaning excellent growth; details: 30 °C, 7.5 g/L urea, 10 ppm cobalt, supplement 3.8 mM
Protocol: as §2

[6] = system: Rhodococcus erythropolis ATCC 47072; test: Growth on supplemented YEMEA (visual grade); assay type: cell-based; design: key: (−) meaning no detectable growth; (+/−) meaning scant growth; (+) meaning little growth; (++) meaning good growth; (+++) meaning very good growth; (++++) meaning excellent growth; details: 26 °C, 7.5 g/L urea, 10 ppm cobalt, supplement 3.8 mM
Protocol: as §2

[7] = system: Rhodococcus rhodochrous DAP 96622 ATCC 55898; test: Growth on supplemented YEMEA (visual grade); assay type: cell-based; design: key: (−) meaning no detectable growth; (+/−) meaning scant growth; (+) meaning little growth; (++) meaning good growth; (+++) meaning very good growth; (++++) meaning excellent growth; details: 26 °C, 7.5 g/L urea, 10 ppm cobalt, supplement 3.8 mM
Protocol: as §2

[8] = system: Rhodococcus sp. DAP 96253 ATCC 55899; test: Growth on supplemented YEMEA (visual grade); assay type: cell-based; design: key: (−) meaning no detectable growth; (+/−) meaning scant growth; (+) meaning little growth; (++) meaning good growth; (+++) meaning very good growth; (++++) meaning excellent growth; details: 30 °C, 7.5 g/L urea, 10 ppm cobalt, supplement 3.8 mM
Protocol: as §2

nitrile hydratase [9] = test: Nitrile hydratase production on supplemented medium; assay type: cell-based; details: YEMEA, urea, cobalt, supplement 3.8 mM
Protocol: (§3) The induction of nitrile hydratase production and amidase production in various nitrile hydratase producing microorganisms was evaluated. All strains were grown on YEMEA medium containing 7.5 g/L of urea and 10 ppm cobalt (provided as cobalt chloride) supplemented with asparagine (ASN), glutamine (GLN), or both asparagine and glutamine. The asparagine and glutamine were added at a concentration of 3.8 mM. As a comparative, enzyme production with no supplementation was also tested. Growth temperature was in the range of 26° C. to 30° C.

amidase [10] = test: Amidase production on supplemented medium; assay type: cell-based; details: YEMEA, urea, cobalt, supplement 3.8 mM
Protocol: as §3

asparaginase I [11] = test: Asparaginase I production on supplemented medium; assay type: cell-based; details: YEMEA, 7.5 g/L urea, 10 ppm cobalt
Protocol: as §3, with “asparaginase I” for “nitrile hydratase production and amidase”, “production” for “production with no supplementation”, “evaluated with supplementation with acrylonitrile (AN), acrylamide (AMD) or acrylonitrile and acrylamide.” for “tested.”

asparaginase I [12] = test: Effect of inducer and media composition on asparaginase I production; assay type: cell-based, Rhodococcus sp. DAP 96253; details: inducer 1000 ppm; for Asparaginase I levels, YEMEA - Glucose With Cobalt / Asparaginase I levels, YEMEA - Glucose Without Cobalt / Asparaginase I levels, YEMEA - Maltose With Cobalt / Asparaginase I levels, YEMEA - Maltose Without Cobalt: Rhodococcus sp. DAP 96253
Protocol: Testing was performed to evaluate the effect on asparaginase I activity based upon the inducer used. In particular, testing was performed using asparagine, glutamine, succinonitrile, and isovaleronitrile as inducers (all added at 1000 ppm each).

[13] = Brevibacterium ketoglutaricum ATCC 21533, 30 °C
[14] = Pseudomonas chloroaphis ATCC 13985, 26 °C
[15] = Pseudomonas chloroaphis ATCC 43051, 30 °C
[16] = Rhodococcus erythropolis ATCC 47072, 26 °C
[17] = Rhodococcus rhodochrous DAP 96622 ATCC 55898, 26 °C
[18] = Rhodococcus sp. DAP 96253 ATCC 55899, 30 °C

- Nitrile Hydratase Level Based on Growth Medium Supplementation (nitrile hydratase [9]; [15]): No
- Amidase Level Based on Growth Medium Supplementation (amidase [10]; [15]): No
- Asparaginase I Level Based on Growth Medium Supplementation (asparaginase I [11]; [15]): No
SMILES: NC(=O)CC[C@H](N)C(=O)O [Glutamine, glutamine]
- Nitrile Hydratase Activity (nitrile hydratase [1]): 173.45 Units/mg cdw
- nitrile hydratase induction compared with acrylonitrile (nitrile hydratase [1]): exceeds the ability of acrylonitrile to induce such activity
- Amidase Activity (amidase [2]): 10.39 Units/mg cdw
- amidase activity greater than that resulting from acrylonitrile (amidase [2]; relative to acrylonitrile as inducer, 1000 ppm): approximately 37%
- Growth [3]: +
- Growth [4]: +
- Growth [5]: −
- Growth [6]: ++
- Growth [7]: ++++
- Growth [8]: ++++
- Nitrile Hydratase Level Based on Growth Medium Supplementation (nitrile hydratase [9]; [13]): 37 Units/mg cdw
- Nitrile Hydratase Level Based on Growth Medium Supplementation (nitrile hydratase [9]; [14]): 0 Units/mg cdw
- Nitrile Hydratase Level Based on Growth Medium Supplementation (nitrile hydratase [9]; [16]): 42 Units/mg cdw
- Nitrile Hydratase Level Based on Growth Medium Supplementation (nitrile hydratase [9]; [17]): 160 Units/mg cdw
- Nitrile Hydratase Level Based on Growth Medium Supplementation (nitrile hydratase [9]; [18]): 135 Units/mg cdw
- Amidase Level Based on Growth Medium Supplementation (amidase [10]; [13]): 0 Units/mg cdw
- Amidase Level Based on Growth Medium Supplementation (amidase [10]; [14]): 0 Units/mg cdw
- Amidase Level Based on Growth Medium Supplementation (amidase [10]; [16]): 14 Units/mg cdw
- Amidase Level Based on Growth Medium Supplementation (amidase [10]; [17]): 6 Units/mg cdw
- Amidase Level Based on Growth Medium Supplementation (amidase [10]; [18]): 7 Units/mg cdw
- Asparaginase I Level Based on Growth Medium Supplementation (asparaginase I [11]; [13]): 20.3 Units/mg cdw
- Asparaginase I Level Based on Growth Medium Supplementation (asparaginase I [11]; [14]): 0 Units/mg cdw
- Asparaginase I Level Based on Growth Medium Supplementation (asparaginase I [11]; [16]): 2 Units/mg cdw
- Asparaginase I Level Based on Growth Medium Supplementation (asparaginase I [11]; [17]): 10 Units/mg cdw
- Asparaginase I Level Based on Growth Medium Supplementation (asparaginase I [11]; [18]): 11.1 Units/mg cdw
- Asparaginase I levels, YEMEA - Glucose With Cobalt (asparaginase I [12]): 1.9 units/mg cell dry weight
- Asparaginase I levels, YEMEA - Glucose Without Cobalt (asparaginase I [12]): 1.5 units/mg cell dry weight
- Asparaginase I levels, YEMEA - Maltose With Cobalt (asparaginase I [12]): 8.1 units/mg cell dry weight
- Asparaginase I levels, YEMEA - Maltose Without Cobalt (asparaginase I [12]): 9.3 units/mg cell dry weight
- ability to induce asparaginase I activity (asparaginase I [12]): showed an ability to induce asparaginase I activity

SMILES: C=CC(N)=O [AMD, acrylamide, reference compound]
- Asparaginase I Level Based on Growth Medium Supplementation (asparaginase I [11]; [13]): 15.4 Units/mg cdw
- Asparaginase I Level Based on Growth Medium Supplementation (asparaginase I [11]; [14]): 0 Units/mg cdw
- Asparaginase I Level Based on Growth Medium Supplementation (asparaginase I [11]; [16]): 0 Units/mg cdw
- Asparaginase I Level Based on Growth Medium Supplementation (asparaginase I [11]; [17]): 7.8 Units/mg cdw
- Asparaginase I Level Based on Growth Medium Supplementation (asparaginase I [11]; [18]): 2 Units/mg cdw

SMILES: CC(C)CC#N [Isovaleronitrile, isovaleronitrile, reference compound]
- Asparaginase I levels, YEMEA - Glucose With Cobalt (asparaginase I [12]): 2.9 units/mg cell dry weight
- Asparaginase I levels, YEMEA - Glucose Without Cobalt (asparaginase I [12]): 3.5 units/mg cell dry weight
- Asparaginase I levels, YEMEA - Maltose With Cobalt (asparaginase I [12]): 7.0 units/mg cell dry weight
- Asparaginase I levels, YEMEA - Maltose Without Cobalt (asparaginase I [12]): 6.8 units/mg cell dry weight

SMILES: C=CC#N [Acrylonitrile, acrylonitrile, reference compound]
- Nitrile Hydratase Activity (nitrile hydratase [1]): 162.23 Units/mg cdw
- Amidase Activity (amidase [2]): 7.59 Units/mg cdw
- Asparaginase I Level Based on Growth Medium Supplementation (asparaginase I [11]; [13]): 14.6 Units/mg cdw
- Asparaginase I Level Based on Growth Medium Supplementation (asparaginase I [11]; [14]): 2 Units/mg cdw
- Asparaginase I Level Based on Growth Medium Supplementation (asparaginase I [11]; [17]): 8.2 Units/mg cdw
- Asparaginase I Level Based on Growth Medium Supplementation (asparaginase I [11]; [18]): 7.8 Units/mg cdw

SMILES: N#CCCC#N [Succinonitrile, succinonitrile, reference compound]
- Asparaginase I levels, YEMEA - Glucose With Cobalt (asparaginase I [12]): 8.5 units/mg cell dry weight
- Asparaginase I levels, YEMEA - Glucose Without Cobalt (asparaginase I [12]): 6.5 units/mg cell dry weight
- Asparaginase I levels, YEMEA - Maltose With Cobalt (asparaginase I [12]): 10.0 units/mg cell dry weight
- Asparaginase I levels, YEMEA - Maltose Without Cobalt (asparaginase I [12]): 11.0 units/mg cell dry weight
- ability to induce asparaginase I activity (asparaginase I [12]): showed an ability to induce asparaginase I activity
